Reference: publication PMC8309042, “Antimelanogenesis Effects of Leaf Extract and Phytochemicals from Ceylon Olive (Elaeocarpus serratus) in Zebrafish Model” (Pharmaceutics, 2021)
Read-outs that look alike come from different tables or passages of the source.

What was measured:
zebrafish embryo = assay: Antimelanogenesis effect in zebrafish embryos (melanin content by ImageJ); format: in vivo, zebrafish (Danio rerio); conditions: for IC50: Danio rerio, read-out: IC50 of melanogenesis inhibition activity in zebrafish; for effect on melanogenesis of zebrafish: concentration 50 μM
Experimental: Zebrafish (Danio rerio) of wild-type AB strain were maintained in a healthy aquatic environment at 26–30 °C, with a 14:10 h light–dark cycle. After 9 h post fertilization (hpf), embryos were placed into a 24-well plate (3 embryos per well), treated with various final concentrations of specimens dissolved in 1% DMSO, and incubated at 28 °C for 48 h (at 57 hpf). The digital image of live zebrafish embryo was taken through a stereomicroscope (Olympus SZ61, Tokyo, Japan) at a total magnification of 40×; then, the melanin content of zebrafish embryo was analyzed by the ImageJ software. […] The number of replications was six.

mushroom tyrosinase = assay: Enzyme kinetic study (Lineweaver–Burk plot); format: biochemical; conditions: for Potential (trend of Vmax with concentration): 0-100 μg/mL; for Inhibition Type: L-tyrosine and L-DOPA substrates, Lineweaver–Burk
Experimental: Enzyme kinetic study is analyzed by the Lineweaver–Burk reciprocal plot of the reaction rate and the concentration of the substrate to evaluate the effect of the specimen on the affinity of the substrate and enzyme. […] The reaction was similar to antityrosinase assay as described above; 40 µL of specimen solution and 70 µL of potassium phosphate buffer (0.1 M, pH 6.8) were mixed, which was followed by adding 50 µL of 200 unit/mL tyrosinase, after incubation at 25 °C for 10 min.

[1] = embryos treated 9 hpf to 57 hpf (48 h)

Row | Potential (trend of Vmax with concentration) (mushroom tyrosinase; L-DOPA substrate) | Potential (trend of Vmax with concentration) (mushroom tyrosinase; L-Tyrosine substrate) | Inhibition Type (mushroom tyrosinase) | Inhibition Type (mushroom tyrosinase; listed as gallic acid) | Inhibition Type (mushroom tyrosinase; listed as mearnsetin) | SMILES | IC50 (zebrafish embryo; 48 h) [µM] | effect on melanogenesis of zebrafish (zebrafish embryo) | IC50 (zebrafish embryo; [1]) [µM] | IC50 (zebrafish embryo; embryos treated 9 hpf to 57 hpf (48 h), dash defined in footnote) [µM]
1 | – | – | – | – | – | NC(=S)Nc1ccccc1 [PTU, 1-phenyl-2-thiourea, reference compound] | 26.3 ± 4.17 | could reduce the melanin formation | – | –
2 | ↓ | ↓ | mixed-type inhibitor | – | – | O=c1c(O)c(-c2cc(O)c(O)c(O)c2)oc2cc(O)cc(O)c12 [Myricetin] | – | slight melanin inhibition effect | 350 ± 42.7 | –
3 | ― | ― | Competitive | competitive inhibitor | – | O=C(O)c1cc(O)c(O)c(O)c1 [Gallic acid] | – | – | – | > 400
4 | – | – | – | – | – | OC[C@H]1O[C@@H](Oc2ccc(O)cc2)[C@H](O)[C@@H](O)[C@@H]1O [Arbutin, arbutin, reference compound] | – | could reduce the melanin formation | 324 ± 19.8 | –
5 | ― | ― | Competitive | – | competitive inhibitor | COc1c(O)cc(-c2oc3cc(O)cc(O)c3c(=O)c2O)cc1O [Mearnsetin, 4′-O-methyl myricetin] | – | better melanogenesis inhibition activity | 121 ± 0.96 | –
